How the values were obtained:
[1] = molecular target: T1, menin/MLL (terbium chelate-labeled menin, FITC-MBM1 peptide) (Homo sapiens, UniProt O00255, T541A); assay: Menin/MLL homogenous time-resolved fluorescence (HTRF) assay; assay type: binding; settings: 30 min incubation
T1 construct: Menin (a.a 1-610-6xhis tag)
T1 sequence (O00255 with tags, fused parts or gaps T541A): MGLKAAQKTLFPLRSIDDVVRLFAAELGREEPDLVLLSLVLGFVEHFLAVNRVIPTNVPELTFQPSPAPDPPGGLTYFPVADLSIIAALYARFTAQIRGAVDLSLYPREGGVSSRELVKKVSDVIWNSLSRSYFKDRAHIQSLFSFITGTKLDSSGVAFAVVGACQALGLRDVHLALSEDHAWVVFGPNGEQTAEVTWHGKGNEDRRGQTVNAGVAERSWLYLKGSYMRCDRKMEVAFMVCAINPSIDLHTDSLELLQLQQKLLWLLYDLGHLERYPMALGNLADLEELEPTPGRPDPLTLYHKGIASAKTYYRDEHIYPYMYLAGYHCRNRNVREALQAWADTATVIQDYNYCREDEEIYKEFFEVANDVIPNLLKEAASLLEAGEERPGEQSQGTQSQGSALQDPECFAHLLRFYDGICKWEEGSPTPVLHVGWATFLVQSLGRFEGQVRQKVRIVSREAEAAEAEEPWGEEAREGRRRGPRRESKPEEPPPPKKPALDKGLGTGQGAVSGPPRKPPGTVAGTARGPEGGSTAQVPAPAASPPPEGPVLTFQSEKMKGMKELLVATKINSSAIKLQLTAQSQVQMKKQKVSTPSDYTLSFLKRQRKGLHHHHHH
Summary of the method: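 Compounds were preincubated 30 min at ambient temperature with 200 pM terbium-labeled menin (aa 1-610, His-tagged) in Tris pH 7.5 buffer with DTT and Pluronic, then 75 nM FITC-MBM1 peptide added for 15 min. HTRF ratio 520/490 nm gave % inhibition; IC50 from four-parameter fit, floor 0.1 nM.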

MOLM14 cells = assay: Proliferation assay, spheroid-like growth, MOLM14 (MLL-AF9 rearranged); assay type: cell-based, human; settings: Homo sapiens, MOLM-14, 192 h, 8 days, confluence as measure of spheroid size, read-out: spheroid assay_OneTime MOLM14 IC50
Summary of the method: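 IC50 derived from a variable-slope dose-response fit of percent confluence change, with DMSO-treated cells as high control and high-dose reference compound as low control. Spheroid-like growth of MOLM14 (200 cells/well) or KO-52 (300 cells/well) in ultra-low attachment plates, 8 days, 37° C, 5% CO2, DMSO normalised to 0.3%, imaged at day 8.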

KO-52 cells = assay: Proliferation assay, spheroid-like growth, KO-52 (MLL wildtype control cell line); assay type: cell-based, human; settings: Homo sapiens, 192 h, KO-52 control cells, 8 days, confluence as measure of spheroid size; read-out: spheroid assay_OneTime KO-52 IC50
Description: The anti-proliferative effect of menin/MLL protein/protein interaction inhibitor test compounds was assessed in human leukemia cell lines. The cell line MOLM14 harbors a MLL translocation and expresses the MLL fusion proteins MLL-AF9, respectively, as well as the wildtype protein from the second allele. […] KO-52 was used as a control cell line containing two MLL (KMT2A) wildtype alleles in order to exclude compounds that display general cytotoxic effects.
MOLM14 cells were cultured in RPMI-1640 (Sigma Aldrich) supplemented with 10% heat-inactivated fetal bovine serum (HyClone), 2 mM L-glutamine (Sigma Aldrich) and 50 μg/ml gentamycin (Gibco). KO-52 cell lines were propagated in alpha-MEM (Sigma Aldrich) supplemented with 20% heat-inactivated fetal bovine serum (HyClone), 2 mM L-glutamine (Sigma Aldrich) and 50 μg/ml gentamycin (Gibco).
In order to assess the anti-proliferative effects, 200 MOLM14 cells, or 300 KO-52 cells were seeded in 200 μl media per well in 96-well round bottom, ultra-low attachment plates (Costar, catalogue number 7007). Cell seeding numbers were chosen based on growth curves to ensure linear growth throughout the experiment. Test compounds were added at different concentrations and the DMSO content was normalized to 0.3%. Cells were incubated for 8 days at 37° C. and 5% CO2. Spheroid like growth was measured in real-time by live-cell imaging (IncuCyteZOOM, Essenbio, 4× objective) acquiring images at day 8. Confluence (%) as a measure of spheroid size was determined using an integrated analysis tool.
In order to determine the effect of the test compounds over time, the confluence in each well as a measure of spheroid size, was calculated. Confluence of the highest dose of a reference compound was used as baseline for the LC (Low control) and the confluence of DMSO treated cells was used as 0% cytotoxicity (High Control, HC).
Absolute IC50 values were calculated as percent change in confluence as follows:
LC=Low Control: cells treated with e.g. 1 μM of the cytotoxic agent staurosporin, or e.g. cells treated with a high concentration of an alternative reference compound
GraphPad Prism (version 7.00) was used to calculate the IC50. Dose-response equation was used for the plot of % Effect vs Log 10 compound concentration with a variable slope and fixing the maximum to 100% and the minimum to 0%.

Compound	IC50 [1] [nM]	IC50 (MOLM14 cells) [nM]	IC50 (KO-52 cells) [nM]
CC(C)[C@H](C1CCN(CC2COC2)CC1)N1CC2(CCN(c3ncnnc3Oc3ccc(F)cc3-c3cncnc3C3CC3)C2)C1 (single isomer, unassigned) [Compound 5]	0.2	120	9310
CC(C)C([C@H]1C[C@@H](N(C)C)C1)N1CC2(CCN(c3ncnnc3Oc3ccc(F)cc3-c3cncnc3C3CC3)C2)C1 (single isomer, unassigned) [Compound 7]	0.1	4	5040
CC(C)C([C@H]1C[C@H](N(C)C)C1)N1CC2(CCN(c3ncnnc3Oc3ccc(F)cc3-c3cncnc3C3CC3)C2)C1 (single isomer, unassigned) [Compound 8]	0.3	52	10200
CC(C)[C@H]([C@H]1C[C@@H](N2CCC(S(C)(=O)=O)CC2)C1)N1CC2(CCN(c3ncnnc3Oc3ccc(F)cc3-c3cncnc3C3CC3)C2)C1 (single isomer, unassigned) [Compound 9]	0.1	21	7160
CC(C)[C@H]([C@H]1C[C@@H](N2CCC(O)C(F)C2)C1)N1CC2(CCN(c3ncnnc3Oc3ccc(F)cc3-c3cncnc3C3CC3)C2)C1 (single isomer, unassigned) [Compound 10]	0.4	17	5090
CC(C)[C@H]([C@H]1C[C@@H](N2C[C@H]3COC[C@H]3C2)C1)N1CC2(CCN(c3ncnnc3Oc3ccc(F)cc3-c3cncnc3C3CC3)C2)C1 (single isomer, unassigned) [Compound 14]	0.1	2	2110
COC1CCN([C@H]2C[C@@H](C(C(C)C)N3CC4(CCN(c5ncnnc5Oc5ccc(F)cc5-c5cncnc5C5CC5)C4)C3)C2)CC1 (single isomer, unassigned) [Compound 16]	0.1	4	1880
CC(C)[C@H]([C@H]1C[C@@H](N2CCCC2)C1)N1CC2(CCN(c3ncnnc3Oc3ccc(F)cc3-c3cncnc3C3CC3)C2)C1 (single isomer, unassigned) [Compound 18]	0.1	2	810
CC(C)C([C@H]1C[C@@H](N2CC3(COC3)C2)C1)N1CC2(CCN(c3ncnnc3Oc3ccc(F)cc3-c3cncnc3C3CC3)C2)C1 (single isomer, unassigned) [Compound 20]	0.1	5	4300
CC(C)C([C@H]1C[C@H](N2CC3(COC3)C2)C1)N1CC2(CCN(c3ncnnc3Oc3ccc(F)cc3-c3cncnc3C3CC3)C2)C1 (single isomer, unassigned) [Compound 21]	0.1	52	4610

Second part, led by results:

IC50 [1] [nM]	IC50 (MOLM14 cells) [nM]	Compound	IC50 (KO-52 cells) [nM]
0.1	3	CC(C)[C@H]([C@H]1C[C@@H](N2CCC(O)CC2)C1)N1CC2(CCN(c3ncnnc3Oc3ccc(F)cc3-c3cncnc3C3CC3)C2)C1 (single isomer, unassigned) [Compound 22]	10800
0.3	9	CC(C)[C@@H]([C@H]1C[C@@H](N2CCC(S(C)(=O)=O)CC2)C1)N1CC2(CCN(c3ncnnc3Oc3ccc(F)cc3-c3cccnc3C3CC3)C2)C1 (single isomer, unassigned) [Compound 23]	1060
0.1	85	CC(C)[C@H]([C@H]1C[C@@H](N2CCC(S(C)(=O)=O)CC2)C1)N1CC2(CCN(c3ncnnc3Oc3ccc(F)cc3-c3ncccc3C3CC3)C2)C1 (single isomer, unassigned) [Compound 25]	5570
6.2	> 940	CC(C)[C@@H]([C@H]1C[C@@H](N2CCC(S(C)(=O)=O)CC2)C1)N1CC2(CCN(c3ncnnc3Oc3ccc(F)cc3-c3ncccc3C3CC3)C2)C1 (single isomer, unassigned) [Compound 26]	> 15000
0.1	36	CC(C)[C@H]([C@H]1C[C@@H](NC(=O)C2CC2)C1)N1CC2(CCN(c3ncnnc3Oc3ccc(F)cc3-c3ncccc3C3CC3)C2)C1 (single isomer, unassigned) [Compound 27]	5560
1.8	220	CC(C)[C@@H](C1CCN(CC2COC2)CC1)N1CC2(CCN(c3ncnnc3Oc3ccc(F)cc3-c3cncnc3C3CC3)C2)C1 (single isomer, unassigned) [Compound 29]	> 15000
0.3	29	CC(C)[C@H]([C@H]1C[C@@H](N2CCC(F)C(O)C2)C1)N1CC2(CCN(c3ncnnc3Oc3ccc(F)cc3-c3cncnc3C3CC3)C2)C1 (single isomer, unassigned) [Compound 30]	2580
0.3	7	CC(C)[C@H]([C@H]1C[C@H](N2CCC(F)C(O)C2)C1)N1CC2(CCN(c3ncnnc3Oc3ccc(F)cc3-c3cncnc3C3CC3)C2)C1 (single isomer, unassigned) [Compound 31]	2410
0.3	7	CC(C)[C@H]([C@H]1C[C@H](N2CCC(O)C(F)C2)C1)N1CC2(CCN(c3ncnnc3Oc3ccc(F)cc3-c3cncnc3C3CC3)C2)C1 (single isomer, unassigned) [Compound 33]	2490
0.5	36	CC(=O)N1CCN([C@H]2C[C@@H]([C@@H](C(C)C)N3CC4(CCN(c5ncnnc5Oc5ccc(F)cc5-c5cncnc5C5CC5)C4)C3)C2)CC1 (single isomer, unassigned) [Compound 34]	5140
1.3	340	CC(=O)N1CCN([C@H]2C[C@H]([C@@H](C(C)C)N3CC4(CCN(c5ncnnc5Oc5ccc(F)cc5-c5cncnc5C5CC5)C4)C3)C2)CC1 (single isomer, unassigned) [Compound 35]	> 15000
0.2	10	CC(C)[C@H]([C@H]1C[C@@H](N2CCN(C(=O)N(C)C)CC2)C1)N1CC2(CCN(c3ncnnc3Oc3ccc(F)cc3-c3cncnc3C3CC3)C2)C1 (single isomer, unassigned) [Compound 36]	3050
0.2	6	COCCN(C)[C@H]1C[C@@H]([C@@H](C(C)C)N2CC3(CCN(c4ncnnc4Oc4ccc(F)cc4-c4cncnc4C4CC4)C3)C2)C1 (single isomer, unassigned) [Compound 38]	> 15000
0.1	7	CC(C)[C@H]([C@H]1C[C@@H](NC2CC2)C1)N1CC2(CCN(c3ncnnc3Oc3ccc(F)cc3-c3cncnc3C3CC3)C2)C1 (single isomer, unassigned) [Compound 39]	1480

From patent US20240417405A1, “Substituted Spiro Derivatives” (Janssen Pharmaceutica NV, priority 2021, published 2024)
